25 molecules from the Kinase Knowledgebase extract (Sharma et al. 2016) can be followed below.

Molecules are shown by their SMILES.

Test [1] concerns the target PIK3CB (Human) (UniProt P42338). Briefly: Assessment of PIK3CB Kinase Activity.
Test [2] concerns the target PIK3CA (human) (UniProt P42336). Briefly: Assessment of PIK3CA Kinase Activity.
For test [3], the target named is PIK3CD (Human) (UniProt O00329). Put plainly: Assessment of PIK3CD Kinase Activity.
For another test, the target named is PIK3CG (human) (UniProt P48736). Put plainly: Assessment of PIK3CG Kinase Activity.
PIK3CG (human), sequence (P48736 whole entry, looked up): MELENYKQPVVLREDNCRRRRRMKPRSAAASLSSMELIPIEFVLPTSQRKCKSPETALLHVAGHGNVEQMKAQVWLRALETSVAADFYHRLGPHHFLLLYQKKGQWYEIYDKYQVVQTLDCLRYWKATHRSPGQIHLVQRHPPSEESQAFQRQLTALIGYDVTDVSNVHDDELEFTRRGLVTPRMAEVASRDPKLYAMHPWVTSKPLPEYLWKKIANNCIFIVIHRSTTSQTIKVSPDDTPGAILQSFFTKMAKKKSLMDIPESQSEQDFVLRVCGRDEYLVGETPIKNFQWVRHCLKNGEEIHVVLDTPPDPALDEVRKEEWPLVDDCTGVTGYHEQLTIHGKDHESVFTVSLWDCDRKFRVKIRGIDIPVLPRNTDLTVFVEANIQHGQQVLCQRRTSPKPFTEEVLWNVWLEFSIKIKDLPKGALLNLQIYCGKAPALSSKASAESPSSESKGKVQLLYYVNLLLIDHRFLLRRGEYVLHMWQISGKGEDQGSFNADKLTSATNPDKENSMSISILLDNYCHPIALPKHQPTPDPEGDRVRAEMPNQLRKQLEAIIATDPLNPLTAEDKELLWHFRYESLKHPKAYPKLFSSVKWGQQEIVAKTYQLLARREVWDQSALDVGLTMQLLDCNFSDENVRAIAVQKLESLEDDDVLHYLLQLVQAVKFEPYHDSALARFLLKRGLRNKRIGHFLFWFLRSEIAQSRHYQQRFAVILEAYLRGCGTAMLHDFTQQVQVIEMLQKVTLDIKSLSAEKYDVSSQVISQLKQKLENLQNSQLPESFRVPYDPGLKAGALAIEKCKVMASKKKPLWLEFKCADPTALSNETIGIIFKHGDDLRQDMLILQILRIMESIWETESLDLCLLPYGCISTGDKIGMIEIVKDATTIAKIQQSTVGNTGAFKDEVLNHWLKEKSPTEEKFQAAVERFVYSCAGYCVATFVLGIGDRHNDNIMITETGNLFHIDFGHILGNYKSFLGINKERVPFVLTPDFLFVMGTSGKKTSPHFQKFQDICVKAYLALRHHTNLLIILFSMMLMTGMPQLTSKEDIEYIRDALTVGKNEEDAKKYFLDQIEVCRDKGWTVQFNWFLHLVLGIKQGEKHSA
For test [4], the target named is PIK3CD (Human) (UniProt O00329). Briefly: Assessment of PIK3CD Kinase Activity in RAJI Cells.
The target in test [5] is PIK3CB (Human) (UniProt P42338). Briefly: Assessment of PIK3CB Kinase Activity in 786-O Cells.
PIK3CB (Human), sequence (P42338 whole entry, looked up): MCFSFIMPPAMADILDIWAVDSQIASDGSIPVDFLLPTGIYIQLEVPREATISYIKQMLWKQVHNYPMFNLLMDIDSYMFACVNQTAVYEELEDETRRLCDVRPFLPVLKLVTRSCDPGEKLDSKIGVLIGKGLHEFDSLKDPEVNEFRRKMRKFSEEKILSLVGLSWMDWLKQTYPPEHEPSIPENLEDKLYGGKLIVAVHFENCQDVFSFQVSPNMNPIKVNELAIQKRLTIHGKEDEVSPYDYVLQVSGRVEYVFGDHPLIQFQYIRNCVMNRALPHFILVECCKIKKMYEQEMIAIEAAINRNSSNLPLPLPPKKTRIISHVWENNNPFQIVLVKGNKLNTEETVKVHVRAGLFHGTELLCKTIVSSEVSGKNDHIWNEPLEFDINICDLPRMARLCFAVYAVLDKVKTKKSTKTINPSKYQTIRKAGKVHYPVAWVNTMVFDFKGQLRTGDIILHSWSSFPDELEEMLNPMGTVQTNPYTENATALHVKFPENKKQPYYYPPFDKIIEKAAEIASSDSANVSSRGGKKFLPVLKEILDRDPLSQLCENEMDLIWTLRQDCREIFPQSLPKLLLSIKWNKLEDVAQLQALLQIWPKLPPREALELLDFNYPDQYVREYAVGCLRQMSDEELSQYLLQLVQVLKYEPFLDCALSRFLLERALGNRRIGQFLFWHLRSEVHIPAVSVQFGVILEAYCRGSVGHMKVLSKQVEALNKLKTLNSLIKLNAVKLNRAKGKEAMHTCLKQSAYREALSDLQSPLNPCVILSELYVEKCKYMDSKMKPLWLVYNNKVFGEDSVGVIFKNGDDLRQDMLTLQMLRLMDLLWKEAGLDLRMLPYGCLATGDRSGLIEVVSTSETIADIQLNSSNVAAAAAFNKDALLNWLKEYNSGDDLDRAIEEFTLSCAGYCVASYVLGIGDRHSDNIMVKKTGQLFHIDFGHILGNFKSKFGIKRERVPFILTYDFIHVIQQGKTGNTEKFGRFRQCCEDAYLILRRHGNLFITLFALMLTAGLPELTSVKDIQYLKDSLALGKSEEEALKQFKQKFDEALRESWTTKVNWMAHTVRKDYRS
Test [6] concerns the target PIK3CA (human) (UniProt P42336). Briefly: Assessment of PIK3CA Kinase Activity in SKOV-3 Cells.

PIK3CA (human), sequence (P42336 whole entry, looked up): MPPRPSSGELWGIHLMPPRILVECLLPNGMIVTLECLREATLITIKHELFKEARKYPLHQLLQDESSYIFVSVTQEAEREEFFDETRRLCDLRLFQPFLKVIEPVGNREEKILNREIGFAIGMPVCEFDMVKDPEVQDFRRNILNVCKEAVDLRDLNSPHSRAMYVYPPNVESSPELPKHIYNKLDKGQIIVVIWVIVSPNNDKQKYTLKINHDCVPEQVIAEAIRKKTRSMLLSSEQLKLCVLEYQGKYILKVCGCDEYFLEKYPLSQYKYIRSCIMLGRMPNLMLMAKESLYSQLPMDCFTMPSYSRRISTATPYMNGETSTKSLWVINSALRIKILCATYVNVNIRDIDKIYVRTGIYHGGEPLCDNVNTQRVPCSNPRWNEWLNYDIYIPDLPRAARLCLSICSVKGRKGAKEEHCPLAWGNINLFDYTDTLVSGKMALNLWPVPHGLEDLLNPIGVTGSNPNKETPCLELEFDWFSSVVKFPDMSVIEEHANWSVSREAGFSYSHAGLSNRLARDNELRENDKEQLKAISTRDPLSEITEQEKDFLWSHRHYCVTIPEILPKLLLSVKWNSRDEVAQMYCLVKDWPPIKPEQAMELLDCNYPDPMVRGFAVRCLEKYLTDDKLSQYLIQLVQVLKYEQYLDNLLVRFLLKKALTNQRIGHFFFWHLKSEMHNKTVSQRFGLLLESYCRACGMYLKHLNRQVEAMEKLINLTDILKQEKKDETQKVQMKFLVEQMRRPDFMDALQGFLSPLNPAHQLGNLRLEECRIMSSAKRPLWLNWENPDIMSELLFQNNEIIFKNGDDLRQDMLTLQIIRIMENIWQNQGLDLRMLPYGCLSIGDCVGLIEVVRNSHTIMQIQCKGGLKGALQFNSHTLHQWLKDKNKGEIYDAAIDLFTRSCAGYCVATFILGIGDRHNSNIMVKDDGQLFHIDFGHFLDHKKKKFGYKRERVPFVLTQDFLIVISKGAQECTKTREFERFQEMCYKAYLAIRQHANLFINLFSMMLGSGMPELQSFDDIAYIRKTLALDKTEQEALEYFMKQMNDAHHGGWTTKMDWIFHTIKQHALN
PIK3CD (Human), sequence (O00329 whole entry, looked up): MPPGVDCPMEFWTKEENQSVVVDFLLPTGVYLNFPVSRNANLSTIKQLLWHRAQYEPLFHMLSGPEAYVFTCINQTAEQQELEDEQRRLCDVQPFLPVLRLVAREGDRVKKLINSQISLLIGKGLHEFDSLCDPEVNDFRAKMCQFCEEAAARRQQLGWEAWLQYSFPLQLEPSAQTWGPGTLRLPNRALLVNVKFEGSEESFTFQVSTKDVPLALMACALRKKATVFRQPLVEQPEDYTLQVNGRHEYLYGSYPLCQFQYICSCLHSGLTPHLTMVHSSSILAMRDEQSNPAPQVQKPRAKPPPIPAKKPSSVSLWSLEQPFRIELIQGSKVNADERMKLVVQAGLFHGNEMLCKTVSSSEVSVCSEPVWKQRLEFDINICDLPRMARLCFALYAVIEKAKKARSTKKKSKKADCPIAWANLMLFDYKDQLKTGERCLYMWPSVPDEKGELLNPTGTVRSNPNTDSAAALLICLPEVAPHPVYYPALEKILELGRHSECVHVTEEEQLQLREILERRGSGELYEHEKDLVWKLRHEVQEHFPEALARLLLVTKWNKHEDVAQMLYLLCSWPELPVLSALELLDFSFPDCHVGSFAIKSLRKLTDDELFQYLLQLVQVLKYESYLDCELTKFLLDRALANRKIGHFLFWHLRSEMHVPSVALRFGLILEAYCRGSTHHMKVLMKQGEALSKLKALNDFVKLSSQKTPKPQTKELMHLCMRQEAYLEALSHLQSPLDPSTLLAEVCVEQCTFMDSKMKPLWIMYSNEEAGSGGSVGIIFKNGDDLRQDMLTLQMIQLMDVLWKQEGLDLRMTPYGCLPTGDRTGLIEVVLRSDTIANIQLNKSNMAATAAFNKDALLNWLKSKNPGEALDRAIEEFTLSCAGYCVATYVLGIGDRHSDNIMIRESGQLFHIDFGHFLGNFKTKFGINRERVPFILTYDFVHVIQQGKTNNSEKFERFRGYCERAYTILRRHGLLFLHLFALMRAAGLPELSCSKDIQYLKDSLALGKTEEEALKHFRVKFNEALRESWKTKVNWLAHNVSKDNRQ

What is called IC50 is the point on the concentration scale where inhibition reaches its midpoint. A low value points to higher potency. For `CC(C)OC(=O)c1cccc(-n2c([C@H](C)Nc3nc(N)ncc3C#N)cc3cccc(Cl)c3c2=O)c1`, the IC50 at PIK3CB (Human) [1] was more than 10 µM; at PIK3CA (human) [2], more than 10 µM; against PIK3CD (Human) [3] it was 0.1 to 1 µM; on PIK3CG (human), 0.1 to 1 µM; against PIK3CD (Human) [4], less than 0.1 µM.
For the molecule `C[C@H](Nc1nc(N)ncc1C#N)c1cc2cccc(Cl)c2c(=O)n1-c1cc(F)cc(F)c1`, the IC50 was more than 10 µM at PIK3CB (Human) [1]; more than 10 µM against PIK3CA (human) [2]; 0.1 to 1 µM against PIK3CD (Human) [3]; less than 0.1 µM on PIK3CG (human); less than 0.1 µM on PIK3CD (Human) [4].
`CC(C)n1c([C@H](C)Nc2ncnc(N)c2C#N)cc2cccc(-c3ccc(=O)n(C)c3)c2c1=O`: the IC50 against PIK3CB (Human) [5] was 0.1 to 1 µM; on PIK3CD (Human) [3], less than 0.1 µM; against PIK3CG (human) it was 0.1 to 1 µM; against PIK3CD (Human) [4] it was less than 0.1 µM.
As for `COc1ncc(-c2cccc3cc([C@H](C)Nc4ncnc(N)c4C#N)n(-c4ccccc4)c(=O)c23)cn1`, the IC50 against PIK3CB (Human) [1] was more than 10 µM; against PIK3CA (human) [2], more than 10 µM; on PIK3CD (Human) [3], less than 0.1 µM; against PIK3CG (human), 0.1 to 1 µM; on PIK3CD (Human) [4], less than 0.1 µM.
`C[C@H](Nc1nc(N)ncc1-c1cccc(S(=O)(=O)N2CCCCC2)c1)c1cc2cccc(Cl)c2c(=O)n1-c1ccccc1`: the IC50 against PIK3CB (Human) [1] was 0.1 to 1 µM; at PIK3CA (human) [2], 0.1 to 1 µM; at PIK3CD (Human) [3], 0.1 to 1 µM; on PIK3CG (human), less than 0.1 µM; on PIK3CD (Human) [4], less than 0.1 µM.
As to `C[C@H](Nc1nc(N)ncc1-c1cscn1)c1cc2cccc(-c3ccc(=O)n(C)c3)c2c(=O)n1-c1ccccc1`, the concentration for half-maximal inhibition (IC50) is more than 10 µM against PIK3CB (Human) [1]; more than 10 µM on PIK3CA (human) [2]; less than 0.1 µM against PIK3CD (Human) [3]; less than 0.1 µM at PIK3CG (human); less than 0.1 µM against PIK3CD (Human) [4].
As to `C[C@H](Nc1nc(N)ncc1C#N)c1cc2cccc(Cl)c2c(C(=O)NC2CCOCC2)n1`, the IC50 against PIK3CB (Human) [1] was more than 10 µM; at PIK3CA (human) [2], more than 10 µM; against PIK3CG (human) it was more than 10 µM; against PIK3CA (human) [6] it was more than 10 µM; at PIK3CD (Human) [4], less than 0.1 µM.
With `C[C@H](Nc1nc(N)ncc1-c1cccc(S(=O)(=O)N(C)C)c1)c1cc2cccc(Cl)c2c(=O)n1-c1ccccc1`, the half-maximal inhibitory concentration (IC50) was 0.1 to 1 µM against PIK3CB (Human) [1]; 0.1 to 1 µM at PIK3CA (human) [2]; less than 0.1 µM against PIK3CD (Human) [3]; less than 0.1 µM against PIK3CG (human); less than 0.1 µM against PIK3CD (Human) [4].
With `COc1cc(-c2cccc3cc(CNc4nc(N)ncc4C#N)n(-c4ccccc4)c(=O)c23)ccn1`, the IC50 against PIK3CB (Human) [1] is more than 10 µM; against PIK3CA (human) [2] it was more than 10 µM; on PIK3CD (Human) [3], less than 0.1 µM; against PIK3CG (human), 0.1 to 1 µM; against PIK3CD (Human) [4], less than 0.1 µM.
For `C[C@H](Nc1nc(N)ncc1-c1cccc(NS(=O)(=O)N(C)C)c1)c1cc2cccc(Cl)c2c(=O)n1-c1ccccc1`, the IC50 against PIK3CB (Human) [1] was 0.1 to 1 µM; on PIK3CA (human) [2], more than 10 µM; against PIK3CD (Human) [3] it was less than 0.1 µM; against PIK3CG (human), less than 0.1 µM; against PIK3CD (Human) [4], less than 0.1 µM.
Take `C[C@H](Nc1nc(N)ncc1-c1cn[nH]c1)c1cc2cccc(Cl)c2c(=O)n1-c1ccccc1`: the IC50 was more than 10 µM on PIK3CB (Human) [1]; more than 10 µM at PIK3CA (human) [2]; 0.1 to 1 µM against PIK3CD (Human) [3]; less than 0.1 µM at PIK3CG (human); less than 0.1 µM against PIK3CD (Human) [4].
For the molecule `C[C@H](Nc1nc(N)ncc1-c1cccc(S(=O)(=O)N2CCCC2)c1)c1cc2cccc(Cl)c2c(=O)n1-c1ccccc1`, the IC50 at PIK3CB (Human) [1] was 0.1 to 1 µM; against PIK3CA (human) [2] it was more than 10 µM; at PIK3CD (Human) [3], less than 0.1 µM; at PIK3CG (human) it was less than 0.1 µM; against PIK3CD (Human) [4], less than 0.1 µM.
`C=CS(=O)(=O)Nc1cccc(-c2cnc(N)nc2N[C@@H](C)c2cc3cccc(Cl)c3c(=O)n2-c2ccccc2)c1`: the IC50 against PIK3CB (Human) [1] is 0.1 to 1 µM; on PIK3CA (human) [2] it was 0.1 to 1 µM; against PIK3CD (Human) [3], less than 0.1 µM; against PIK3CG (human), less than 0.1 µM; at PIK3CD (Human) [4] it was less than 0.1 µM.
As for `COc1nc(-c2cnc(N)nc2N[C@@H](C)c2cc3cccc(-c4ccc(=O)n(C)c4)c3c(=O)n2-c2ccccc2)cs1`, the IC50 against PIK3CB (Human) [1] was more than 10 µM; against PIK3CB (Human) [5], more than 10 µM; against PIK3CA (human) [2], more than 10 µM; against PIK3CD (Human) [3], less than 0.1 µM; against PIK3CG (human), less than 0.1 µM; on PIK3CA (human) [6], more than 10 µM. The molecule also had an IC50 against PIK3CD (Human) [4] of less than 0.1 µM.
Regarding `C[C@H](Nc1ncnc(N)c1C#N)c1cc2cccc(Cl)c2c(=O)n1-c1ccon1`, the half-maximal inhibitory concentration (IC50) against PIK3CB (Human) [1] was more than 10 µM; against PIK3CA (human) [2], more than 10 µM; against PIK3CD (Human) [3] it was 0.1 to 1 µM; against PIK3CG (human) it was 0.1 to 1 µM; against PIK3CD (Human) [4] it was less than 0.1 µM.
For `COc1ncc(-c2cccc3cc([C@H](C)Nc4nc(N)ncc4C#N)n(-c4ccon4)c(=O)c23)cn1`, the 50% inhibitory concentration (IC50) against PIK3CB (Human) [1] is more than 10 µM; on PIK3CA (human) [2], more than 10 µM; on PIK3CD (Human) [3], 0.1 to 1 µM; against PIK3CD (Human) [4], less than 0.1 µM.
As for `C[C@H](Nc1ncnc(N)c1C#N)c1cc2cccc(Cl)c2c(C(=O)NC2CCOCC2)n1`, the IC50 was more than 10 µM at PIK3CB (Human) [1], more than 10 µM at PIK3CA (human) [2], 0.1 to 1 µM against PIK3CD (Human) [3] and less than 0.1 µM on PIK3CD (Human) [4].
`Cc1ncc(-c2cccc3cc([C@H](C)Nc4ncnc(N)c4C#N)n(-c4ccon4)c(=O)c23)cn1`: the IC50 on PIK3CB (Human) [1] was more than 10 µM; against PIK3CA (human) [2], more than 10 µM; against PIK3CD (Human) [3], 0.1 to 1 µM; at PIK3CG (human), more than 10 µM; at PIK3CD (Human) [4], less than 0.1 µM.
As for `CC(C)n1c([C@H](C)Nc2nc(N)ncc2C#N)cc2cccc(-c3ccc(=O)n(C)c3)c2c1=O`, the IC50 is 0.1 to 1 µM against PIK3CB (Human) [5], less than 0.1 µM at PIK3CD (Human) [3], 0.1 to 1 µM on PIK3CG (human) and less than 0.1 µM on PIK3CD (Human) [4].
Take `Cc1ncc(-c2cccc3cc([C@H](C)Nc4nc(N)ncc4C#N)n(C(C)C)c(=O)c23)cn1`: the IC50 is more than 10 µM against PIK3CB (Human) [1]; more than 10 µM against PIK3CA (human) [2]; less than 0.1 µM against PIK3CD (Human) [3]; 0.1 to 1 µM against PIK3CA (human) [6]; less than 0.1 µM against PIK3CD (Human) [4].
As to `C[C@H](Nc1nc(N)ncc1-c1cncs1)c1cc2cccc(-c3ccc(=O)n(C)c3)c2c(=O)n1-c1ccccc1`, the half-inhibitory concentration (IC50) is more than 10 µM against PIK3CB (Human) [1]; more than 10 µM against PIK3CA (human) [2]; less than 0.1 µM on PIK3CD (Human) [3]; less than 0.1 µM against PIK3CG (human); less than 0.1 µM against PIK3CD (Human) [4].
On to `CC(=O)c1cnc(N)nc1N[C@@H](C)c1cc2cccc(Cl)c2c(=O)n1-c1ccccc1`, for which the IC50 at PIK3CB (Human) [1] is less than 0.1 µM; against PIK3CA (human) [2], 0.1 to 1 µM; at PIK3CD (Human) [3], less than 0.1 µM; against PIK3CG (human) it was less than 0.1 µM; at PIK3CD (Human) [4] it was less than 0.1 µM.
On to `COc1ncc(-c2cccc3cc([C@H](C)Nc4nc(N)ncc4C#N)n(-c4ccccc4)c(=O)c23)cn1`, for which the IC50 against PIK3CB (Human) [1] is more than 10 µM; against PIK3CB (Human) [5] it was more than 10 µM; at PIK3CD (Human) [3], less than 0.1 µM; against PIK3CG (human), less than 0.1 µM; against PIK3CD (Human) [4], less than 0.1 µM.
As to `CCOc1nc(-c2cnc(N)nc2N[C@@H](C)c2cc3cccc(-c4ccc(=O)n(C)c4)c3c(=O)n2-c2ccccc2)cs1`, the IC50 at PIK3CD (Human) [3] was less than 0.1 µM; at PIK3CG (human), less than 0.1 µM; against PIK3CA (human) [6], 0.1 to 1 µM; on PIK3CD (Human) [4], less than 0.1 µM.
As to `C[C@H](Nc1nc(N)ncc1-c1ccoc1)c1cc2cccc(Cl)c2c(=O)n1-c1ccccc1`, the IC50 against PIK3CB (Human) [1] was more than 10 µM; on PIK3CA (human) [2], more than 10 µM; at PIK3CD (Human) [3] it was 0.1 to 1 µM; on PIK3CG (human), less than 0.1 µM; against PIK3CD (Human) [4], less than 0.1 µM.
